Test results published in patent US20220204473A1, “COMPOUND AS IRAK INHIBITOR” (SHANGHAI MEIYUE BIOTECH DEVELOPMENT CO., LTD., priority 2018, published 2022).
Read-outs that look alike come from different tables or passages of the source.

Columns and labels:
[1] = PK assay in rat (intravenous injection and oral gavage); format: in vivo; settings: plasma, male SD rat; for Cmax: read-out: Peak concentration Cmax; for AUC(0-t): read-out: Area under curve AUC0-t; for AUC(0-inf): read-out: Area under curve AUC0-∞; for MRT: read-out: Average retention time MRT; for clearance: read-out: Clearance CL; for half-life: read-out: Half life t1/2 (converted); for Vd: read-out: Volume of distribution at steady state VZ; for bioavailability: read-out: Bioavailability F; for Tmax: read-out: Time to peak tmax
Description: The rats used for pharmacokinetic study in the example were male SPF-grade SD rats (B&K Universal, Shanghai).
Route of administration: a single dose by oral gavage or intravenous injection
Sampling points: 0.083 h, 0.25 h, 0.5 h, 1 h, 2 h, 4 h, 6 h, 8 h and 24 h after administration
Sample processing: 0.2 mL of venous blood was collected, and let stand on ice before centrifugation to separate plasma (centrifugation conditions: 8000 rpm, 6 min, 4° C.). The separated plasma was stored at −80° C. before analysis.
Internal standard working solution: An appropriate amount of tolbutamide internal standard stock solution at 645,000 ng/mL was added into a volumetric flask, and was diluted to the volume with methanol. The solution was well mixed to give an internal standard working solution with a concentration of 50 ng/mL.
Sample pretreatment: 50 μL of plasma was added into a 1.5-mL centrifuge tube, and added with 250 μL of internal standard solution (methanol of the same volume for the blank control). The solution was well mixed by vortex, and centrifuged for 5 min at 14000 rpm. 200 μL of the supernatant was transferred into a 96-well sample feeding plate, and loaded onto a LC-MS/MS system.
Column: ACQUITY UPLC BEH C18 1.7 μm (50 mm×2.10 mm)
Mobile phase: A: 0.1% aqueous formic acid; B: 0.1% formic acid in acetonitrile
The data processing system was Analyst software (Applied Biosystems, USA, ver 1.5.5).

[2] = tested on: Salmonella typhimurium TA98 and TA100; experiment: Mini-Ames assay in Salmonella typhimurium; settings: TA98 and TA100, with or without S9 mixture
Description: S9 homogenate: β-napthoflavone and phenobarbital induced rat liver microsome homogenate S9 fraction was used as the metabolic activation system for this assay. S9 was purchased from CHI Scientific, Inc. and stored in a freezer at −75° C. before use.
S9 mixture and mock mixture: S9 was quickly thawed to prepare a liquid mixture before the assay. 0.2 M PBS phosphate buffer (pH 7.4) was used as the mock mixture.
The overnight bacterial cultures were prepared from a stock of the strains. 80 μL of the stock was added to 20 mL of broth. For strains TA98 and TA100, 62.5 μL of ampicillin at a concentration of 0.8% were added per 10 mL of broth #2. The inoculated broth was then incubated on a thermostatic shaker overnight at 37° C. with a rotation speed of 160±10 rpm. The overnight cultures over the target absorbance were stored at 2-8° C. before use. The overnight cultures were used for genotyping and mutation tests.
The experimental system was exposed to the test compounds on plates in plate incorporation assay (Ames et al., 1975; N. Flamand et al., 2000).

[3] = target: T1, hERG potassium ion channel (Homo sapiens, UniProt Q12809); experiment: hERG whole-cell patch clamp in HEK-293 cells; format: cell-based; settings: HEK-293 cells stably expressing hERG, pH 7.4, inhibition for hERG at 30 μM concentration
T1 construct: expressed in transfected cells; host or cells: HEK-293
T1 sequence (Q12809 whole entry): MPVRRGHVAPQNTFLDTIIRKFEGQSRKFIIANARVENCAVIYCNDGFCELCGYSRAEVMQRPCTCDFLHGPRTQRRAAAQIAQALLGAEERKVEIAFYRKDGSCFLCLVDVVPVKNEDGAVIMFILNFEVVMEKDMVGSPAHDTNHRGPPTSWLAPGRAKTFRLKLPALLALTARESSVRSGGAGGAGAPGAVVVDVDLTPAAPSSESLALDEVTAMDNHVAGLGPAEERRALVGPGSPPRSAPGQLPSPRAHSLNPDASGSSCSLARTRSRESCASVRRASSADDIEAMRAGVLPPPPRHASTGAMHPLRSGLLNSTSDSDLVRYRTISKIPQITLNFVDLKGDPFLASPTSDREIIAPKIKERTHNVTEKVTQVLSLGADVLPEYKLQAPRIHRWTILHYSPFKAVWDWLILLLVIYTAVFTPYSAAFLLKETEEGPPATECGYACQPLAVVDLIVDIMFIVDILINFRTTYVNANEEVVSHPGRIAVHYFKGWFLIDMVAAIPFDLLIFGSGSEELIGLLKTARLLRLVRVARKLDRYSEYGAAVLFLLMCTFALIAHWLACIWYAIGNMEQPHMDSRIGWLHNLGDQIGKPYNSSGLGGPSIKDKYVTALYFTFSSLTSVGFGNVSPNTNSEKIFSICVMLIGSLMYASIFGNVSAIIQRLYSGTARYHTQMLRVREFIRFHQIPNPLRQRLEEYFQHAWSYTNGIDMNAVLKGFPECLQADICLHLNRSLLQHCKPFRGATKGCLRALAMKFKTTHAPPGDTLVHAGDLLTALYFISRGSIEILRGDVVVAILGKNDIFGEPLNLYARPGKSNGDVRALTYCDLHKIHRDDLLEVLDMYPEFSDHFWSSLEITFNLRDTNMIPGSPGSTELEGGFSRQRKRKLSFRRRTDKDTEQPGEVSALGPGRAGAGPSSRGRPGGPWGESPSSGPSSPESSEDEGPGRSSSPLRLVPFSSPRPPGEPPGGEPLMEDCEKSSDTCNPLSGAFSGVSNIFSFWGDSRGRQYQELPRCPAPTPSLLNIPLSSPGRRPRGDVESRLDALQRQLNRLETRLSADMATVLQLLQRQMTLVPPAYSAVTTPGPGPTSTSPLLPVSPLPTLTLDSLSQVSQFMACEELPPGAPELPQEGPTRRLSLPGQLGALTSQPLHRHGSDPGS
Description: This study evaluated the cardiac safety of the compounds according to the present disclosure, and an HEK-293 cell line stably expressing hERG potassium ion channel was used for detection.
Procedures: Test compound stocks were diluted in DMSO into 0.3 mM, 1 mM, and 3 mM dilutions respectively. […] The working solutions of the test compounds were ultrasonically treated for 20 min.
Patch clamping: Under an inverted microscope, recording electrodes were controlled by micromanipulator to contact with the cell. A negative voltage was applied to create a G-omega shaped connection. After forming the G-omega shaped connection, a rapid capacitance compensation was given. Under the continuous negative voltage, the cell membrane was ruptured to form a whole-cell recording configuration. In the whole-cell recording configuration, slow capacitance compensation was given, and the values of membrane capacitance and series resistance were recorded.
Voltage stimulation scheme for cellular hERG potassium current: The cell membrane clamping voltage was −80 mV; the voltage was first elevated from −80 mV to +30 mV, held for 2.5 sec, and rapidly raised to and held at −50 mV for 4 sec, thus exciting the hERG channel tail current. Data acquisition was performed every 10 sec. −50 mV was used for drain current detection.
The cover glasses planted with cells were placed in the recording chamber of an inverted microscope. Negative control and test compounds flowed through the recording chamber in an ascending order of concentration by gravity perfusion to quickly act on the cells. During the recording, the extracellular buffer was continuously circulated by a vacuum pump. The current detected in a cell in the negative control was used as the background for the cell. Each concentration was allowed to act for 5 min or until the current was stabilized. All experiments were performed at room temperature.
The current of each concentration was normalized first
and then the inhibition rate was calculated
Basic statistics were calculated for each concentration, including mean, standard deviation (SD), standard error (SE), and replicates (n). The dose-dependent curve was fitted with the following equation and the half maximal inhibitory concentration (IC50) of the test compounds was calculated:
wherein C represents the test compound concentration, IC50 represents the half maximal inhibitory concentration, and h represents the Hill coefficient. Curve fitting and calculation of IC50 were done by GraphPad Prism 5.0 software.

[4] = tested on: cytokine TNF-α in LPS-induced human PBMCs; experiment: Inhibition of cytokine TNF-α in LPS-induced human PBMC (ELISA); format: cell-based; settings: 0.1 μg/mL LPS for 4 h
Description: Procedures: Cytokine production in human PBMCs (peripheral blood mononuclear cells) was induced by LPS (lipopolysaccharide) in vitro, and the inhibitory effect of the compounds on induced cytokine production in human PBMCs was investigated.
Fresh human PBMC was centrifuged for 10 min at room temperature at 450×g and the supernatant was discarded. The PBMC was resuspended in complete RPMI 1640 medium.
The assay was performed in complete medium. PBMC was seeded at a density of 1×10^5 cells/well into a 96-well plate. The compounds according to the present disclosure were serially diluted in an isotonic 100% DMSO solution to 8 concentrations from 20 μM to 0.002 nM respectively, with the final DMSO concentration being 0.25%. Cells were pre-incubated with the formulated compounds for 30 min at 37° C. prior to stimulation. To induce cytokine secretion, cells were stimulated with 0.1 μg/mL LPS (Sigma, Escherichia coli O111:B4) for 4 h at 37° C. The cell culture supernatant was then separated by centrifugation at 450×g for 10 min at room temperature.
The amount of secreted TNF-α in the supernatants was determined using the human TNF-α ELISA kit according to the manufacturer's instruction.
The readings of absorbance at A450 were measured with a microplate reader SpectraMax i3x (Molecular Device) for calculating the inhibition of the compounds, and IC50 values were calculated with GraphPad Prism 7.0 software respectively.

[5] = 1 mg/kg, intravenous injection, 1 mpk, 5% DMSO + 15% Solutol + 80% Saline
[6] = 1 mg/kg, intravenous injection, 1 mpk
[7] = 5 mg/kg, oral administration, 5 mpk, 15% solutol HS15 + 85% PBS
[8] = 2 mg/kg, oral administration, 2 mpk, 5% DMSO + 15% Solutol + 80% Saline

**Q.** Which results are given for `COc1cc2nn([C@H]3CC[C@H](O)CC3)cc2cc1NC(=O)c1cccc(C(F)(F)F)n1` [MY-004-127-1]?
**A.** Cmax [1, 5]: 1420 ng/mL; AUC(0-t) [1, 6]: 5530 ng·h/mL; AUC(0-inf) [1, 6]: 5880 ng·h/mL; MRT [1, 6]: 7.54 h; clearance [1, 6]: 2.84 mL/min/kg; half-life [1, 6]: 6.29 h; Vd [1, 6]: 1.55 L/kg; AUC(0-t) [1, 7]: 18400 ng·h/mL; AUC(0-inf) [1, 7]: 22500 ng·h/mL; MRT [1, 7]: 9.16 h; bioavailability [1, 7]: 66.5%; half-life [1, 7]: 8.84 h; Cmax [1, 7]: 1480 ng/mL; Tmax [1, 7]: 4.67 h; Mini-Ames result [2]: negative; inhibition at 5 min, 30 µM [3]: 11.6%

**Q.** With `CN(C)c1cc2nn([C@H]3C[C@H](C(C)(C)O)C3)cc2cc1NC(=O)c1cccc(C(F)(F)F)n1` [MY-004-089] as the compound, how does the Cmax [1, 5] read?
**A.** 1580 ng/mL

**Q.** And the AUC(0-t) [1, 6]?
**A.** 3390 ng·h/mL

**Q.** What about the AUC(0-inf) [1, 6] of the same compound?
**A.** 3510 ng·h/mL

**Q.** And the MRT [1, 6]?
**A.** 5.2 h

**Q.** What about the clearance [1, 6] of the same compound?
**A.** 4.89 mL/min/kg

**Q.** And the half-life [1, 6]?
**A.** 5.5 h

**Q.** What about the Vd [1, 6] of the same compound?
**A.** 2.26 L/kg

**Q.** What about the AUC(0-t) [1, 8] of the same compound?
**A.** 3000 ng·h/mL

**Q.** What about the AUC(0-inf) [1, 8] of the same compound?
**A.** 3550 ng·h/mL

**Q.** What about the MRT [1, 8] of the same compound?
**A.** 12.6 h

**Q.** And the bioavailability [1, 8]?
**A.** 44.2%

**Q.** And the half-life [1, 8]?
**A.** 8.11 h

**Q.** What about the Cmax [1, 8] of the same compound?
**A.** 227 ng/mL

**Q.** And the Tmax [1, 8]?
**A.** 4 h

**Q.** What about the IC50 [4] of the same compound?
**A.** 165 nM

**Q.** For `COc1cc2nn([C@H]3CC[C@@](C)(O)CC3)cc2cc1NC(=O)c1cccc(C(F)(F)F)n1` [MY-004-126-2], which Cmax [1, 5] is on record?
**A.** 1430 ng/mL

**Q.** And the AUC(0-t) [1, 6]?
**A.** 4080 ng·h/mL

**Q.** What about the AUC(0-inf) [1, 6] of the same compound?
**A.** 4540 ng·h/mL

**Q.** And the MRT [1, 6]?
**A.** 8.81 h

**Q.** And the clearance [1, 6]?
**A.** 3.74 mL/min/kg

**Q.** What about the half-life [1, 6] of the same compound?
**A.** 7.59 h

**Q.** And the Vd [1, 6]?
**A.** 2.4 L/kg

**Q.** And the AUC(0-t) [1, 7]?
**A.** 15400 ng·h/mL

**Q.** And the AUC(0-inf) [1, 7]?
**A.** 35900 ng·h/mL

**Q.** What about the MRT [1, 7] of the same compound?
**A.** 10.3 h

**Q.** What about the bioavailability [1, 7] of the same compound?
**A.** 75.8%

**Q.** What about the half-life [1, 7] of the same compound?
**A.** 24.8 h

**Q.** And the Cmax [1, 7]?
**A.** 1150 ng/mL

**Q.** And the Tmax [1, 7]?
**A.** 4 h

**Q.** And the Mini-Ames result [2]?
**A.** negative

**Q.** What about the inhibition at 5 min, 30 µM [3] of the same compound?
**A.** 10.1%

**Q.** With `COc1cc2nn([C@H]3CC[C@](C)(O)CC3)cc2cc1NC(=O)c1cccc(C(F)(F)F)n1` [MY-004-126-1] as the compound, how does the Cmax [1, 5] read?
**A.** 1210 ng/mL

**Q.** What about the AUC(0-t) [1, 6] of the same compound?
**A.** 3150 ng·h/mL

**Q.** And the AUC(0-inf) [1, 6]?
**A.** 3250 ng·h/mL

**Q.** And the MRT [1, 6]?
**A.** 5.46 h

**Q.** What about the clearance [1, 6] of the same compound?
**A.** 5.14 mL/min/kg

**Q.** What about the half-life [1, 6] of the same compound?
**A.** 5.25 h

**Q.** And the Vd [1, 6]?
**A.** 2.34 L/kg

**Q.** And the AUC(0-t) [1, 7]?
**A.** 11500 ng·h/mL

**Q.** And the AUC(0-inf) [1, 7]?
**A.** 17700 ng·h/mL

**Q.** What about the MRT [1, 7] of the same compound?
**A.** 22.4 h

**Q.** And the bioavailability [1, 7]?
**A.** 73.1%

**Q.** And the half-life [1, 7]?
**A.** 15.2 h

**Q.** And the Cmax [1, 7]?
**A.** 924 ng/mL

**Q.** And the Tmax [1, 7]?
**A.** 4 h

**Q.** And the IC50 [4]?
**A.** 71.8 nM

**Q.** And the inhibition at 5 min, 30 µM [3]?
**A.** 12.8%

**Q.** With `CN(C)c1cc2nn([C@H]3CC[C@H](O)CC3)cc2cc1NC(=O)c1cccc(C(F)(F)F)n1` [MY-004-153] as the compound, how does the IC50 [4] read?
**A.** 191 nM

**Q.** And the inhibition at 5 min, 30 µM [3]?
**A.** 17.7%
